Data: patent US20230143119A1, “PHARMACEUTICAL COMPOSITION FOR PREVENTION OR TREATMENT OF DIABETES AND METABOLIC DISEASES ASSOCIATED THEREWITH” (DONG-A ST CO., LTD., priority 2020, published 2023)

Columns and labels:
[1] = system: DIO mice; test: 12-week drug-diet admixture in diet-induced obese (DIO) and insulin resistant mice; assay type: in vivo, C57BL/6J mice; conditions: compound 1 100 mg/kg/day, elafibranor 30 mg/kg/day, alone or in combination, 12 weeks
Experimental: To induce insulin resistance, six-weeks old male C57BL/6J mice were supplied with a special diet of high fat, high fructose and high cholesterol (Research Diets Inc., D09100301) for at least 27 weeks. A drug-diet admixture was prepared so that diet-induced obese (DIO) and insulin resistant mice could be administered with each of compound 1 at 100 mg/kg/day and elafibranor at 30 mg/kg/day as a PPAR agonist alone or in combination. The prepared drug-diet admixture was supplied to mice for 12 weeks. Nonfasting blood glucose level was measured from plasma collected after autopsy at a time point of 12 weeks after drug administration using a Roche's AccuChek Active glucose meter.

[2] = system: normal mice; test: Single dose administration in normal mice with oral sucrose loading; assay type: in vivo, ICR male mice; conditions: oral compound 1 3 mg/kg, voglibose 0.02 mg/kg, alone or in combination; sucrose 2 g/kg 30 min later
Experimental: At a time point of 30 minutes later, sucrose solution was orally loaded at 2 g/kg/10 ml. […] A time-blood glucose level response curve was obtained. In terms of a rate of change, a comparison was made between an area under the time-blood glucose level curve in a control group administered with solvent only and an area under the time-blood glucose level curve in a drug administration group.

[3] = system: HF mice; test: Three-week administration in high fat diet (HF) insulin resistant mice; assay type: in vivo, C57BL/6J male mice; conditions: for effect of reducing body fat: compound 1 50 mg/kg or metformin 150 mg/kg twice a day alone, body composition analysis by NMR; for blood concentration of total GLP-1 (GLP-1 secretion) / weight loss: compound 1 50 mg/kg, metformin 150 mg/kg, twice a day, alone or co-administered; for blood concentration of total GLP-1 (GLP-1 secretion): three weeks, nonfasting autopsy; for weight loss: two weeks
Experimental: Four-weeks old C57BL/6J male mice were supplied with a high fat diet (Research Diets Inc., D12492; 60% kcal fat) for ten weeks so as to induce insulin resistance. After acclimatization to drug administration for two weeks, the mice were assigned into each group based on body weight and body fat. Compound 1 was administered alone at 50 mg/kg twice a day to a compound 1 monotherapy group, and metformin was administered alone at 150 mg/kg twice a day to a metformin monotherapy group. The co-administration group was orally co-administered with compound 1 at 50 mg/kg and metformin at 150 mg/kg twice a day for three weeks. […] Fasting blood glucose was measured from whole blood collected from a tail vein after fasting for six hours at the second week of administration using a Roche's AccuChek Active glucose meter.

For CSc1ccc(C(=O)/C=C/c2cc(C)c(OC(C)(C)C(=O)O)c(C)c2)cc1 [elafibranor], the “hypoglycemic effect (nonfasting blood glucose level)” value [1] was “exhibited a hypoglycemic effect”.
With OCC(CO)N[C@H]1C[C@](O)(CO)[C@@H](O)[C@H](O)[C@H]1O [voglibose] the “hypoglycemic effect (postprandial blood glucose for two hours after sucrose loading)” value [2] was “no hypoglycemic effect”.
With CN(C)C(=N)N=C(N)N [metformin] the “effect of reducing body fat” value [3] was “insignificant effect of reducing body fat”, the “blood concentration of total GLP-1 (GLP-1 secretion)” value [3] was “significant increase in GLP-1 secretion was not identified” and the weight loss [3] was −4.4%.
CCc1cnc(N2CCC(CCCOc3cc(F)c(-c4noc(C(C)C)n4)c(F)c3)CC2)nc1 [compound 1, 3-(4-(3-(1-(5-ethylpyrimidin-2-yl)piperidin-4-yl)propoxy)-2,6-difluorophenyl)-5-isopropyl-1,2,4-oxadiazole] was tested, and the “hypoglycemic effect (nonfasting blood glucose level)” value [1] was “did not exhibit a significant hypoglycemic effect”, the “effect of reducing body fat” value [3] was “no effect of reducing body fat” and the “blood concentration of total GLP-1 (GLP-1 secretion)” value [3] was “significant increase in GLP-1 secretion was not identified”. For the same compound, the weight loss [3] was −4.0%.
